Source: PubChem BioAssay (NCI)
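Protocol summary: plate cells (96-well), add compound at 5 concentrations, incubate 48 h, interpolate endpoints linearly. GI50 = concentration required for 50% inhibition of growth. At the TGI there is no net growth.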

Tests used:
Test in all cases: NCI anticancer screen, dose series, 48 h
SF-539 CNS = system: SF-539 CNS
SN12C renal = system: SN12C renal
SR leukemia = system: SR leukemia
ACHN renal = system: ACHN renal
TK-10 renal = system: TK-10 renal
RPMI-8226 leukemia = system: RPMI-8226 leukemia
HS 578T breast = system: HS 578T breast
NCI/ADR-RES ovarian = system: NCI/ADR-RES ovarian
MCF7 breast = system: MCF7 breast
DU-145 prostate = system: DU-145 prostate
CAKI-1 renal = system: CAKI-1 renal
786-0 renal = system: 786-0 renal
A549 NSCLC = system: A549 NSCLC
HT29 colon = system: HT29 colon
RXF 393 renal = system: RXF 393 renal
SK-OV-3 ovarian = system: SK-OV-3 ovarian
IGROV1 ovarian = system: IGROV1 ovarian
T-47D breast = system: T-47D breast
HCC-2998 colon = system: HCC-2998 colon
OVCAR-8 ovarian = system: OVCAR-8 ovarian
HOP-92 NSCLC = system: HOP-92 NSCLC
MDA-MB-231 breast = system: MDA-MB-231 breast
BT-549 breast = system: BT-549 breast
OVCAR-5 ovarian = system: OVCAR-5 ovarian
HCT-15 colon = system: HCT-15 colon
SF-295 CNS = system: SF-295 CNS
KM12 colon = system: KM12 colon
CCRF-CEM leukemia = system: CCRF-CEM leukemia
MALME-3M melanoma = system: MALME-3M melanoma
HL-60(TB) leukemia = system: HL-60(TB) leukemia
SF-268 CNS = system: SF-268 CNS
NCI-H23 lung = system: NCI-H23 lung
SNB-19 CNS = system: SNB-19 CNS
HOP-62 NSCLC = system: HOP-62 NSCLC
UO-31 renal = system: UO-31 renal
NCI-H522 lung = system: NCI-H522 lung
SK-MEL-2 melanoma = system: SK-MEL-2 melanoma
LOX IMVI melanoma = system: LOX IMVI melanoma
UACC-257 melanoma = system: UACC-257 melanoma
SW-620 colon = system: SW-620 colon
A498 renal = system: A498 renal
M14 melanoma = system: M14 melanoma
MDA-MB-435 = system: MDA-MB-435
SK-MEL-28 melanoma = system: SK-MEL-28 melanoma
COLO 205 colon = system: COLO 205 colon
PC-3 prostate = system: PC-3 prostate
NCI-H460 lung = system: NCI-H460 lung
NCI-H226 lung = system: NCI-H226 lung
K-562 leukemia = system: K-562 leukemia
MOLT-4 leukemia = system: MOLT-4 leukemia
U251 CNS = system: U251 CNS
UACC-62 melanoma = system: UACC-62 melanoma
EKVX NSCLC = system: EKVX NSCLC
OVCAR-4 ovarian = system: OVCAR-4 ovarian
SNB-75 CNS = system: SNB-75 CNS
SK-MEL-5 melanoma = system: SK-MEL-5 melanoma

Nc1ccccc1NC(=O)c1ccc(NC(=O)C/C=C/c2cccnc2)cn1
GI50 (SF-539 CNS): 148 nM
TGI (SF-539 CNS): 3.07 µM
GI50 (SN12C renal): 329 nM
TGI (SN12C renal): > 50 µM
GI50 (SR leukemia): 435 nM
TGI (SR leukemia): > 50 µM
GI50 (ACHN renal): 1520 nM
TGI (ACHN renal): > 50 µM
GI50 (TK-10 renal): 58.3 nM
TGI (TK-10 renal): 1800 nM
GI50 (RPMI-8226 leukemia): 336 nM
TGI (RPMI-8226 leukemia): > 10.2 µM
GI50 (HS 578T breast): 826 nM
TGI (HS 578T breast): 37.1 µM
GI50 (NCI/ADR-RES ovarian): 1160 nM
TGI (NCI/ADR-RES ovarian): > 50 µM
GI50 (MCF7 breast): 806 nM
TGI (MCF7 breast): > 13.5 µM
GI50 (DU-145 prostate): 544 nM
TGI (DU-145 prostate): 2060 nM
GI50 (CAKI-1 renal): 1680 nM
TGI (CAKI-1 renal): 13 µM
GI50 (786-0 renal): 1520 nM
TGI (786-0 renal): 8.17 µM
GI50 (A549 NSCLC): 2040 nM
TGI (A549 NSCLC): > 50 µM
GI50 (HT29 colon): 531 nM
TGI (HT29 colon): > 33.9 µM
GI50 (RXF 393 renal): 864 nM
TGI (RXF 393 renal): 5.9 µM
GI50 (SK-OV-3 ovarian): 1670 nM
TGI (SK-OV-3 ovarian): > 27.4 µM
GI50 (IGROV1 ovarian): 601 nM
TGI (IGROV1 ovarian): > 50 µM
GI50 (T-47D breast): 279 nM
TGI (T-47D breast): > 13.7 µM
GI50 (HCC-2998 colon): 801 nM
TGI (HCC-2998 colon): 4.26 µM
GI50 (OVCAR-8 ovarian): 83.9 nM
TGI (OVCAR-8 ovarian): > 50 µM
GI50 (HOP-92 NSCLC): 95.3 nM
TGI (HOP-92 NSCLC): 1260 nM
GI50 (MDA-MB-231 breast): 3.35 µM
TGI (MDA-MB-231 breast): > 50 µM
GI50 (BT-549 breast): 777 nM
TGI (BT-549 breast): 3.73 µM
GI50 (OVCAR-5 ovarian): 509 nM
TGI (OVCAR-5 ovarian): > 50 µM
GI50 (HCT-15 colon): 523 nM
TGI (HCT-15 colon): > 50 µM
GI50 (SF-295 CNS): 1400 nM
TGI (SF-295 CNS): 8.28 µM
GI50 (KM12 colon): 1430 nM
TGI (KM12 colon): > 20.5 µM
GI50 (CCRF-CEM leukemia): 216 nM
TGI (CCRF-CEM leukemia): > 50 µM
GI50 (MALME-3M melanoma): 190 nM
GI50 (HL-60(TB) leukemia): 284 nM
TGI (HL-60(TB) leukemia): > 29.4 µM
GI50 (SF-268 CNS): 1300 nM
TGI (SF-268 CNS): > 40 µM
GI50 (NCI-H23 lung): 1450 nM
TGI (NCI-H23 lung): > 24.9 µM
GI50 (SNB-19 CNS): 1720 nM
TGI (SNB-19 CNS): > 50 µM
GI50 (HOP-62 NSCLC): 1110 nM
TGI (HOP-62 NSCLC): > 24.9 µM
GI50 (UO-31 renal): 702 nM
TGI (UO-31 renal): 16.6 µM
GI50 (NCI-H522 lung): 334 nM
TGI (NCI-H522 lung): 3.37 µM
GI50 (SK-MEL-2 melanoma): 816 nM
TGI (SK-MEL-2 melanoma): 5.09 µM
GI50 (LOX IMVI melanoma): 286 nM
TGI (LOX IMVI melanoma): 3.95 µM
GI50 (UACC-257 melanoma): 798 nM
TGI (UACC-257 melanoma): > 13.3 µM
GI50 (SW-620 colon): 188 nM
TGI (SW-620 colon): > 14.8 µM
GI50 (A498 renal): 347 nM
TGI (A498 renal): 1620 nM
GI50 (M14 melanoma): 704 nM
TGI (M14 melanoma): 11.4 µM
GI50 (MDA-MB-435): 1100 nM
TGI (MDA-MB-435): > 16 µM
GI50 (SK-MEL-28 melanoma): 866 nM
TGI (SK-MEL-28 melanoma): 2650 nM
GI50 (COLO 205 colon): 445 nM
TGI (COLO 205 colon): 2390 nM
GI50 (PC-3 prostate): 806 nM
TGI (PC-3 prostate): > 50 µM
GI50 (NCI-H460 lung): 745 nM
TGI (NCI-H460 lung): > 37.4 µM
GI50 (NCI-H226 lung): 1080 nM
TGI (NCI-H226 lung): 19.6 µM
GI50 (K-562 leukemia): 213 nM
TGI (K-562 leukemia): > 50 µM
GI50 (MOLT-4 leukemia): 724 nM
TGI (MOLT-4 leukemia): > 50 µM
GI50 (U251 CNS): 732 nM
TGI (U251 CNS): > 23.6 µM
GI50 (UACC-62 melanoma): 745 nM
TGI (UACC-62 melanoma): 3.6 µM
GI50 (EKVX NSCLC): 2380 nM
TGI (EKVX NSCLC): > 50 µM
GI50 (OVCAR-4 ovarian): 1990 nM
TGI (OVCAR-4 ovarian): > 50 µM
GI50 (SNB-75 CNS): 674 nM
TGI (SNB-75 CNS): > 47.6 µM
GI50 (SK-MEL-5 melanoma): 958 nM
TGI (SK-MEL-5 melanoma): 2370 nM
